In patent publication US9381200B2, “Nitrogen containing compounds” (WOCKHARDT LIMITED, priority 2011, dated 2016):
In brackets after ≈: the same amount, converted by molar mass. Like-named read-outs stand apart in the source and are kept apart here.

What was measured:
Format in all cases: cell-based
[1] = tested on: E. coli 7 MP; test: Antibacterial activity (MIC), agar dilution per CLSI; conditions: Escherichia coli, Table 3, E. coli 7 MP expressing ESBL, read-out: MIC
Experimental: (§1) The biological activity of representative compounds according to the invention against various bacterial strains was investigated. In a typical study, overnight grown bacterial cultures were diluted appropriately and inoculated on the agar media containing doubling dilutions of the test compounds. Observation for growth or no growth was performed after 16-20 hours of incubation at 35±2° C. in ambient air. The overall procedure was performed as per Clinical and Laboratory Standards Institute (CLSI) recommendations (Clinical and Laboratory Standards Institute (CLSI), Performance Standards for Antimicrobial Susceptibility Testing, 20th Informational Supplement, M 100-S20, Volume 30, No. 1, 2010).
(§2) Table 3 details antibacterial activity of representative compounds according to the invention against various E. coli strains (NCTC 13351, M 50 and 7 MP) expressing ESBL (Extended Spectrum Beta Lactamases).

[2] = tested on: E. coli NCTC 13351; test: as above; conditions: Escherichia coli, NCTC13351, Table 3, E. coli NCTC 13351 expressing ESBL, 16-20 hours, 35±2° C., read-out: MIC
Experimental: as §1, §2

[3] = tested on: E. coli M 50; test: as above; conditions: Escherichia coli
Experimental: as §1
(§3) The activities are expressed as MICs (mcg/ml).

[4] = tested on: E. Coli B 89; test: Antibacterial activity (MIC) against MDR Gram negative strains; conditions: Escherichia coli
Experimental: as §1, §3

[5] = tested on: E. Coli H 484; test: as above; conditions: Escherichia coli
Experimental: as §1, §3

[6] = tested on: E. Coli M 3; test: as above; conditions: Escherichia coli
Experimental: as §1, §3

[7] = tested on: E. Coli M 44; test: as above; conditions: Escherichia coli
Experimental: as §1, §3

[8] = tested on: E. Coli W 13351; test: as above; conditions: Escherichia coli
Experimental: as §1, §3

[9] = tested on: E. Coli W 13352; test: as above; conditions: Escherichia coli
Experimental: as §1, §3

[10] = tested on: E. Coli W 13353; test: as above; conditions: Escherichia coli
Experimental: as §1, §3

[11] = tested on: K penumoniae H 521; test: as above
Experimental: as §1, §3

[12] = tested on: K penumoniae H 523; test: as above
Experimental: as §1, §3

[13] = tested on: K penumoniae H 525; test: as above
Experimental: as §1, §3

[14] = tested on: K. penumoniae S 48; test: as above
Experimental: as §1, §3

[15] = tested on: P. aeruginosa ATCC 27853; test: as above; conditions: Pseudomonas aeruginosa, ATCC27853
Experimental: as §1, §3

[16] = tested on: P. aeruginosa Ps 21; test: as above; conditions: Pseudomonas aeruginosa, PS21
Experimental: as §1, §3

[17] = tested on: P. aeruginosa Ps 32; test: as above; conditions: Pseudomonas aeruginosa, PS32
Experimental: as §1, §3

[18] = M50, Table 3, E. coli M 50 expressing ESBL, agar dilution, read-out: MIC
[19] = M50, Table 4, E. Coli M 50, Class C ESBL, MDR, read-out: MIC
[20] = Table 4, E. Coli B 89, Class C ESBL, MDR, read-out: MIC
[21] = Table 4, E. Coli H 484, Class C ESBL, MDR, read-out: MIC
[22] = Table 5, E. Coli M 3, Class B ESBL, MDR, read-out: MIC
[23] = Table 5, E. Coli M 44, Class B ESBL, MDR, read-out: MIC
[24] = Table 4, E. Coli W 13351, Class A ESBL, MDR, read-out: MIC
[25] = Table 4, E. Coli W 13352, Class A ESBL, MDR, read-out: MIC
[26] = Table 4, E. Coli W 13353, Class A ESBL, MDR, read-out: MIC
[27] = Table 4, K penumoniae H 521, KPC ESBL, MDR, read-out: MIC
[28] = Table 4, K penumoniae H 523, KPC ESBL, MDR, read-out: MIC
[29] = Table 4, K penumoniae H 525, KPC ESBL, MDR, read-out: MIC
[30] = Table 5, K. penumoniae S 48, Class B ESBL, MDR, read-out: MIC
[31] = Table 5, P. aeruginosa ATCC 27853, read-out: MIC
[32] = Table 5, P. aeruginosa Ps 21, read-out: MIC
[33] = Table 5, P. aeruginosa Ps 32, read-out: MIC

| Structure (SMILES) | MIC [1] | MIC [2] | MIC [3, 18] | MIC [3, 19] | MIC [4, 20] | MIC [5, 21] | MIC [6, 22] | MIC [7, 23] | MIC [8, 24] | MIC [9, 25] | MIC [10, 26] | MIC [11, 27] | MIC [12, 28] | MIC [13, 29] | MIC [14, 30] | MIC [15, 31] | MIC [16, 32] | MIC [17, 33] | further results |
| --- | --- | --- | --- | --- | --- | --- | --- | --- | --- | --- | --- | --- | --- | --- | --- | --- | --- | --- | --- |
| O=C(NNC(=O)[C@H]1CC[C@@H]2CN1C(=O)N2OS(=O)(=O)O)[C@@H]1C[C@H](F)CN1 (mixture of isomers) [Example 11, trans-sulfuric acid mono-[2-(N′-[(2S,4S)-4-fluoro-pyrrolidin-2-carbonyl]-hydrazinocarbonyl)-7-oxo-1,6-diaza-bicyclo[3.2.1]oct-6-yl]ester] | 4 µg/mL | 2 µg/mL | 1 µg/mL | 2 µg/mL | 2 µg/mL | 16 µg/mL | 8 µg/mL | 1 µg/mL | 2 µg/mL | 2 µg/mL | 2 µg/mL | 4 µg/mL | 2 µg/mL | 2 µg/mL | 2 µg/mL | > 32 µg/mL | > 32 µg/mL | > 32 µg/mL | – |
| O=C(NNC(=O)[C@H]1CC[C@@H]2CN1C(=O)N2OS(=O)(=O)O)[C@@H]1CCCCN1 (mixture of isomers) [Example 17, trans-sulfuric acid mono-[2-(N′—((S)-piperidin-2-carbonyl)-hydrazinocarbonyl)-7-oxo-1,6-diaza-bicyclo[3.2.1]oct-6-yl]ester] | 2 µg/mL | 0.5 µg/mL | 0.5 µg/mL | 0.5 µg/mL | 0.5 µg/mL | 4 µg/mL | 0.5 µg/mL | 0.5 µg/mL | 0.5 µg/mL | 0.5 µg/mL | 0.25 µg/mL | 0.5 µg/mL | 0.5 µg/mL | 0.5 µg/mL | 0.5 µg/mL | > 32 µg/mL | > 32 µg/mL | > 32 µg/mL | – |
| O=C(NNC(=O)[C@H]1CCCN1)[C@H]1CC[C@@H]2CN1C(=O)N2OS(=O)(=O)O (mixture of isomers) [Example 30, trans-sulfuric acid mono-[2-(N′—[(R)-pyrrolidin-2-carbonyl]-hydrazinocarbonyl)-7-oxo-1,6-diaza-bicyclo[3.2.1]oct-6-yl]ester] | 32 µg/mL | 16 µg/mL | 8 µg/mL | 8 µg/mL | 8 µg/mL | 8 µg/mL | 8 µg/mL | 16 µg/mL | 16 µg/mL | 16 µg/mL | 8 µg/mL | 8 µg/mL | 8 µg/mL | > 32 µg/mL | > 32 µg/mL | > 32 µg/mL | > 32 µg/mL | > 32 µg/mL | – |
| N[C@@H]1CN[C@H](C(=O)NNC(=O)[C@H]2CC[C@@H]3CN2C(=O)N3OS(=O)(=O)O)C1 (mixture of isomers) [Example 35, trans-sulfuric acid mono-[2-(N′-[(2S,4S)-4-amino-pyrrolidin-2-carbonyl]-hydrazinocarbonyl)-7-oxo-1,6-diaza-bicyclo[3.2.1]oct-6-yl]ester] | 4 µg/mL | 1 µg/mL | 1 µg/mL | 1 µg/mL | 1 µg/mL | 1 µg/mL | 1 µg/mL | 2 µg/mL | 1 µg/mL | 1 µg/mL | 1 µg/mL | 2 µg/mL | 1 µg/mL | 1 µg/mL | 2 µg/mL | > 32 µg/mL | > 32 µg/mL | 32 µg/mL | – |
| O=C(NNC(=O)[C@H]1CC[C@@H]2CN1C(=O)N2OS(=O)(=O)O)C1CCCNC1 (mixture of isomers) [Example 14, trans-sulfuric acid mono-[2-(N′—((RS)-piperidin-3-carbonyl)-hydrazinocarbonyl)-7-oxo-1,6-diaza-bicyclo[3.2.1]oct-6-yl]ester] | 2 µg/mL (≈ 5.11 µM) | 0.5 µg/mL (≈ 1.28 µM) | 0.25 µg/mL (≈ 0.639 µM) | 0.5 µg/mL (≈ 1.28 µM) | 0.5 µg/mL (≈ 1.28 µM) | 2 µg/mL (≈ 5.11 µM) | 0.5 µg/mL (≈ 1.28 µM) | 0.25 µg/mL (≈ 0.639 µM) | 0.5 µg/mL (≈ 1.28 µM) | 0.5 µg/mL (≈ 1.28 µM) | 0.5 µg/mL (≈ 1.28 µM) | 0.5 µg/mL (≈ 1.28 µM) | 0.25 µg/mL (≈ 0.639 µM) | 0.25 µg/mL (≈ 0.639 µM) | 4 µg/mL (≈ 10.2 µM) | 8 µg/mL (≈ 20.4 µM) | 16 µg/mL (≈ 40.9 µM) | 8 µg/mL (≈ 20.4 µM) | – |
| O=C(NNC(=O)[C@H]1CC[C@@H]2CN1C(=O)N2OS(=O)(=O)O)C1CNCCN1 (mixture of isomers) [Example 38, trans-sulfuric acid mono-[2-(N′—((RS)-piperazin-2-carbonyl)-hydrazinocarbonyl)-7-oxo-1,6-diaza-bicyclo[3.2.1]oct-6-yl]ester] | 8 µg/mL (≈ 20.4 µM) | 4 µg/mL (≈ 10.2 µM) | 2 µg/mL (≈ 5.1 µM) | 2 µg/mL (≈ 5.1 µM) | 2 µg/mL (≈ 5.1 µM) | 8 µg/mL (≈ 20.4 µM) | 1 µg/mL (≈ 2.55 µM) | 4 µg/mL (≈ 10.2 µM) | 4 µg/mL (≈ 10.2 µM) | 4 µg/mL (≈ 10.2 µM) | 2 µg/mL (≈ 5.1 µM) | 2 µg/mL (≈ 5.1 µM) | 2 µg/mL (≈ 5.1 µM) | 2 µg/mL (≈ 5.1 µM) | 4 µg/mL (≈ 10.2 µM) | > 32 µg/mL | > 32 µg/mL | > 32 µg/mL | – |
| NCC(=O)NNC(=O)[C@H]1CC[C@@H]2CN1C(=O)N2OS(=O)(=O)O (relative stereo) [Example 7, trans-sulfuric acid mono-[2-(N′-(amino-acetyl)-hydrazinocarbonyl)-7-oxo-1,6-diaza-bicyclo[3.2.1]oct-6-yl]ester] | 4 µg/mL (≈ 11.9 µM) | 2 µg/mL (≈ 5.93 µM) | 2 µg/mL (≈ 5.93 µM) | 2 µg/mL (≈ 5.93 µM) | 4 µg/mL (≈ 11.9 µM) | 4 µg/mL (≈ 11.9 µM) | 4 µg/mL (≈ 11.9 µM) | 2 µg/mL (≈ 5.93 µM) | 2 µg/mL (≈ 5.93 µM) | 1 µg/mL (≈ 2.96 µM) | 0.5 µg/mL (≈ 1.48 µM) | 2 µg/mL (≈ 5.93 µM) | 1 µg/mL (≈ 2.96 µM) | 2 µg/mL (≈ 5.93 µM) | 4 µg/mL (≈ 11.9 µM) | > 32 µg/mL | > 32 µg/mL | > 32 µg/mL | – |
| NCCC(=O)NNC(=O)[C@H]1CC[C@@H]2CN1C(=O)N2OS(=O)(=O)O (relative stereo) [Example 8, trans-sulfuric acid mono-[2-(N′-(3-amino-propioyl)-hydrazinocarbonyl)-7-oxo-1,6-diaza-bicyclo[3.2.1]oct-6-yl]ester] | 2 µg/mL (≈ 5.69 µM) | 1 µg/mL (≈ 2.85 µM) | 1 µg/mL (≈ 2.85 µM) | 1 µg/mL (≈ 2.85 µM) | 1 µg/mL (≈ 2.85 µM) | 2 µg/mL (≈ 5.69 µM) | 4 µg/mL (≈ 11.4 µM) | 0.5 µg/mL (≈ 1.42 µM) | 1 µg/mL (≈ 2.85 µM) | 1 µg/mL (≈ 2.85 µM) | 1 µg/mL (≈ 2.85 µM) | 1 µg/mL (≈ 2.85 µM) | 0.5 µg/mL (≈ 1.42 µM) | 1 µg/mL (≈ 2.85 µM) | 1 µg/mL (≈ 2.85 µM) | 8 µg/mL (≈ 22.8 µM) | 16 µg/mL (≈ 45.5 µM) | 8 µg/mL (≈ 22.8 µM) | – |
| CN(C)c1cc(NC(=O)CNC(C)(C)C)c(O)c2c1C[C@H]1C[C@H]3[C@H](N(C)C)C(O)=C(C(N)=O)C(=O)[C@@]3(O)C(O)=C1C2=O [Tigecyclin, Tigecycline, reference compound] | – | – | – | – | – | – | – | – | – | – | – | – | – | – | – | – | – | – | MIC ([3]; M50): 0.5 µg/mL (≈ 0.854 µM); MIC [4]: 0.5 µg/mL (≈ 0.854 µM); MIC [5]: 0.25 µg/mL (≈ 0.427 µM); MIC [6]: 4 µg/mL (≈ 6.83 µM); MIC [7]: 0.25 µg/mL (≈ 0.427 µM); MIC [8]: 1 µg/mL (≈ 1.71 µM); MIC [9]: 0.25 µg/mL (≈ 0.427 µM); MIC [10]: 1 µg/mL (≈ 1.71 µM); MIC [11]: 2 µg/mL (≈ 3.41 µM); MIC [12]: 8 µg/mL (≈ 13.7 µM); MIC [13]: 2 µg/mL (≈ 3.41 µM); MIC [14]: 1 µg/mL (≈ 1.71 µM); MIC [15]: 16 µg/mL (≈ 27.3 µM); MIC [16]: 16 µg/mL (≈ 27.3 µM); MIC [17]: 16 µg/mL (≈ 27.3 µM) |
